For orientation: IC50 means the midpoint of a concentration-inhibition curve.

The subject of one series is rat adipocyte. Description: Inhibition of free fatty acid (FFA) release from epinephrine-stimulated rat adipocytes. The series is classed as cell-based. The following applies: concentration inhibiting release of the fatty acid by 50 %, relative values with IC50 of VOSO4 regarded as 1.00 mM, 10^-5 M epinephrine, 3 hours at 37°C, glycine complex in aqueous solution, others in physiological saline. As for the experimental part: A pharmacological test was conducted as described below in accordance with the method reported in Biol.Pharm.Bull., 18, 719-725 (1995).
A male Wistar rat weighing 200 g was exsanguinated under an anesthesia with ether, and a fat cell mass was isolated from a fat tissue around an epididymis according to the method of Road Bell (J. Biol. Chem. , 239, 375(1964)). The fat cell mass was cut into pieces using scissors, and digested for 1 hour at 37°C in a KRB buffer solution (5 mM Glucose, 120 mM NaCl, 1.27 mM CaCl2, 1.2 mM MgSO4, 4.75 mM KCl, 1.2 mM KH2PO4 and 24 […]; pH=7.4) supplemented with 20 mg of bovine serum albumin (BSA) and 2 mg of collagenase per ml. The fat cells were sieved through a nylon mesh (250 µm) whereby being made free from any undigested tissue, washed three times with the buffer similar to that described above except for containing no collagenase, and adjusted at 2.5 x 10^6 cells/ml.
Then the reaction mixture was combined with 10^-5 M epinephrine and the resultant solution was incubated for 3 hours at 37°C. The reaction was quenched by cooling with ice, and the mixture was centrifuged for 10 minutes at 3000 rpm. The extracellular solution was examined for its free fatty acid (FFA) level using an NEFA kit whereby calculating an IC50 value.

For series [1], the system named is KK-A^y mice. As to the kind of experiment: Body weight change in KK-A^y mice under daily intraperitoneal treatment (index of side effects). The series is classed as in vivo. The following applies: intraperitoneally once a day, 4.5 or 2.5 mg Zn/kg depending on blood glucose, 13 to 15 days (Figures 9 to 11). As for the experimental part:
(§1) In the control group, 0.5 ml of the acacia solution was given.

Series [2] relates to KK-A^y mice. Description: Glucose tolerance test in KK-A^y mice after 15 days of treatment. The series is classed as in vivo. The settings on record: KK-A^y mice fasted for 13 hours, glucose orally at 1 g/kg; compared with control mice (Figure 12). As for the experimental part:
8-Week old KK-A^y mice were treated intraperitoneally once a day with a 5 % acacia solution in a control group (n=6) or with Zn(PA)2 (n=6), Zn(maltol)2 (n=7) or Zn(Cys-OMe)2 (n=6) dissolved in a 5 % acacia solution in the complex treatment groups.
as §1
(glucose tolerance test: A mouse was fasted for 13 hours and then administered orally with glucose at 1 g/kg, and then the blood glucose levels were determined at certain time intervals.)

For series [3], the system named is KK-A^y mice. Description: Glucose tolerance test in KK-A^y mice after 3 days of treatment. Format: in vivo. The settings on record: 4 mg/kg once a day for 3 days, then fasted for 14 hours, compared with mice not receiving the complex (Figure 3). On the procedure:
Subsequently, KK-A^y mice as type II diabetes model animals and humans were subjected to the glucose tolerance tests to obtain blood glucose curves, which are shown in Figure 3 and Figure 4.
In Figure 3, (a) denotes a blood glucose curve obtained in a glucose tolerance test in mice each of which received 4 mg/kg of Zn(PA)2(H2O)2 as an inventive zinc (II) complex once a day for 3 days and then fasted for 14 hours, and (b) denotes one in a control group in which the mice were not treated with the complex. In Figure 4, (a) denotes a blood glucose curve obtained in a glucose tolerance test in diabetes patients, while (b) denotes one in normal healthy volunteers.

The mark [4] stands for this setting: Glucose +, 6-methyl-picolinic acid and pyridine-2-acetic acid complexes in DMSO.

In the case of `O=S(=O)([O-])[O-].[O]=[V+2]` [VOSO4/5.4 or 2.3H2O, Oxovanadium sulfate, reference compound], the half-inhibitory concentration (IC50) in the series with rat adipocyte (setting [4]) and in the series on rat adipocyte (Glucose -) was 1 mM each time.

The molecule `Cc1cccnc1C(=O)O` [Zn(3MPA)2] registered a 50% inhibitory concentration (IC50) in the series on rat adipocyte (Glucose -) of 0.42 mM.

Regarding `O=C(O)c1cccc(Br)n1` [Zn(6BPA)2], the IC50 with rat adipocyte (Glucose -) was 0.45 mM.

Take `Cc1cccc(C(=O)[O][Zn][O]C(=O)c2cccc(C)n2)n1` [Zn(6MPA)2(H2O), bis(6-methyl-picolinate)zinc(II)complex]: the concentration for half-maximal inhibition (IC50) in the series with rat adipocyte (setting [4]) stood at 0.39 mM.

For the molecule `COC(=O)C(N)C[S-].COC(=O)C(N)C[S-].[Zn+2]` [Zn(Cys-OMe)2, bis(L-cysteine methyl ester) zinc (II) complex], in the series on KK-A^y mice [1], the “body weight change (weight loss as an index of side effects)” value is given as “no increase or decrease in the body weight was observed”.

`O=C(O)C1CSCN1` [Zn(D-4Tia)2] had an IC50 with rat adipocyte (Glucose -) of 1.28 mM.

As for `NC(=O)CC[C@H](N)C(=O)O` [Zn(Gln)2], the half-maximal inhibitory concentration (IC50) in the series with rat adipocyte (setting [4]) was determined as 0.84 mM.

As to `O=c1cc(CO)occ1O` [Zn(Koj)2], the half-maximal inhibitory concentration (IC50) in the series on rat adipocyte (Glucose -) turned out to be 0.91 mM.

The molecule `O=C(O)C1CSCN1` [Zn(L-4Tia)2] gave an IC50 with rat adipocyte (Glucose -) of 1.2 mM.

For the molecule `O=C([O-])c1cccnc1.O=C([O-])c1cccnc1.[Zn+2]` [Zn(Nic)2/4H2O], in the series with rat adipocyte (setting [4]), the IC50 was 0.82 mM.

Turning to `O.O.O=C([O-])c1ccccn1.O=C([O-])c1ccccn1.[Zn+2]` [trans-[Zn(PA)2H2O)2], trans-bis(picolinate) zinc (II) complex], the “glucose tolerance test after the administration of each complex for 15 days” value in the series with KK-A^y mice [2] is reported as “an amelioration of the diabetes conditions when compared with the diabetes mice (control mice)”. Moreover, the “blood glucose curve in glucose tolerance test” value in the series on KK-A^y mice [3] is “a reduced peak level of the blood glucose followed by a rapid decrease, as compared with the mice not receiving the complex and then recovered its almost normal blood glucose level after 180 minutes”. Further, the “body weight change (weight loss as an index of side effects)” value in the series on KK-A^y mice [1] is “not observed in most of the animals”.

Regarding “bis(2-mercaptopyridine-N-oxide) zinc (II) complex [Zn(MPNO)2/0.3H2O]”, the IC50 in the series with rat adipocyte (setting [4]) worked out at 0.011 mM; in the series on rat adipocyte (Glucose -), 0.013 mM.

Turning to “bis(3-hydroxy-2-methyl-4-pyronate) zinc (II) complex [Zn(maltol)2/2.6H2O]”, in the series with KK-A^y mice [2], the “glucose tolerance test after the administration of each complex for 15 days” value is recorded as “an amelioration of the diabetes conditions when compared with the diabetes mice (control mice)”. In addition, the “body weight change (weight loss as an index of side effects)” value in the series with KK-A^y mice [1] was “immediately after the treatment with the complex, the body weight was recovered in response to the reduction in the blood glucose and the reduction in the dose”. In addition, in the series with rat adipocyte (setting [4]), the 50% inhibitory concentration (IC50) worked out at 0.57 mM.

Regarding “bis(pyrrolidine-N-dithiocarbamate) zinc (II) complex [Zn(PCD)2]”, the IC50 with rat adipocyte (Glucose -) turned out to be 0.049 mM.

For “cis-bis(threonine) zinc (II) complex [cis-[Zn(Thr)2(H2O)2]]”, the IC50 in the series with rat adipocyte (Glucose -) was 1.3 mM.

Take “trans-bis(glycine) zinc (II) complex [Zn(Gly)2/1.0H2O]”: the IC50 with rat adipocyte (setting [4]) was 0.63 mM; with rat adipocyte (Glucose -) it was 0.84 mM.

The values are drawn from EP1674096A2, “Hypoglycemics comprising organic zinc (II) complexes” (Japan Science and Technology Agency, priority 1999, dated 2001).
